Read-outs that look alike come from different tables or passages of the source.
Legend:
TGF-β1 activation = assay: Macrophage activation assay (LPS-treated IC-21 macrophages plus fetal fibroblast conditioned media, TGF-β1 ELISA); format: cell-based, Mouse; conditions: for inhibition at 50 µM / inhibition at 100 µM: read-out: Inhibition of TGF-β1 Activation, % control (STD)
Description: Cultured macrophages were lifted from the dish with 3 ml of PBS. The PBS was balanced with 15 ml of RPMI-1640 containing 10% FBS. The cells were counted and then seeded in 100 mm plates at 1x10^6 cells/dish. When the cultured macrophages reached approximately 70% confluency (2-3 days) they were washed with PBS and RPMI-1640 medium containing 5% FBS and 10 ng/ml LPS was applied (Figure 1). After 24 h of activation with LPS the cells were washed gently with PBS. At this point conditioned medium from confluent fetal dermal fibroblasts was collected and 5 ml was distributed into each dish containing macrophages. The cells were incubated for an additional 24 h, the media were collected, spun down at 600 x g for 10 min and stored at 4° C before TGF-β1 evaluation by ELISA. Each condition was done in duplicate. The cells, washed with PBS, were harvested for total RNA extraction.
Fetal dermal fibroblasts were seeded in 100 mm dishes at 1x10^6 cell/dish. The cells were grown to confluency (2-3 days). The cultures were washed with PBS and fresh medium, either DMEM supplemented with 10% FBS or AIM-V medium (a serum free medium) for serum-free conditions, was applied for 24 h (Figure 1). The medium was collected and combined in order to obtain a homogenous pool of latent TGF-β1. The collection of the medium was done just prior to application in the macrophage assay.
Each measurement was performed in duplicates.

TGase II = assay: mRNA for TGase II in macrophages, RT-PCR with densitometry; format: cell-based; conditions: Mus musculus, Macrophage; macrophages treated with 1 µM hydrocortisone; densitometric analysis of RT-PCR products
Description: (§1) The cells were washed with PBS, followed by addition of the extraction buffer provided with the kit (RNeasy RNA extraction kit). The lysed cells were scraped from the dish and collected in microtubes. Samples were either frozen at -70 °C before analysis or directly assessed following manufacturer protocol. Absorbance at 260 nm and 280 nm was measured and the integrity of RNA was evaluated by denaturing formaldehyde agarose gels stained with ethidium bromide.
(§2) The procedure used to transcribe the total RNA was described in detail previously (28). […]
(§3) A portion of the first strand cDNA reaction was used in PCR, which was carried out in 25 µl containing 16 mM Tris-HCl, pH 8.3, 50 mM KCl, 1.5 mM MgCl2, 0.01 % gelatin, 200 µM of each dNTPs, 1 µM each sense and antisense oligonucleotides and 2.5 units of AmpliTaq DNA polymerase. […] Sizes were determined using Q X 174 DNA/Hae III markers. […] Densitometry was used for quantitative analysis of the ethidium bromide stained gels.
In an attempt to identify the mechanism of this inhibition, the level of mRNA was evaluated for TGase II in macrophages treated with 1 µM hydrocortisone.

TGF-β1 [1] = assay: mRNA for TGF-β1 in macrophages, Northern blot; format: cell-based, Mouse; conditions: combined treatment of LPS with M6P or DCA
Description: as §1
Northern blot analysis was carried out as described previously (27). Briefly, total RNA samples (5 µg) were diluted in formaldehyde-MOPS buffer and subjected to electrophoresis in a denaturing 1.2 % Sea Kem GTG agarose gel along with the RNA size markers. RNA was transferred to a nitrocellulose membrane by capillary transfer. The blots were prehybridized for 3 h at 42° C in a solution containing 10% dextran sulfate, 2 x Denhardt's solution, 50% formamide, 5 x SSPE (0.75 M Sodium chloride, 0.05 M sodium phosphate, 0.005 M ethylenediaminetetraacetic acid)/ 0.1% SDS, and 250 µg/ml of sheared salmon testis DNA. Hybridization solution was essentially the same except that ^32P dCTP-labeled DNA probe and 150 µg/ml of salmon testis DNA were included. The hybridization was carried out for 16 h at 42° C. […]

TGF-β1 [2] = assay: Expression of TGF-β1 mRNA in neonatal fibroblasts, semiquantitative RT-PCR; format: cell-based, human
Description: (§4) Human neonatal fibroblasts were seeded in 100 mm dishes at 1 x 10^6 cells/dish. […] In addition, cells were treated with two concentrations of Mannose 1-Phosphate (M1P) (100 and 200 µM) for 24 and 48 h. […] Each treatment was run in duplicates and repetitive analyses were performed.
as §1, §2
A portion of the first strand cDNA reaction was used in PCR, which was carried out in 25 µl containing 16 mM Tris-HCl, pH 8.3, 50 mM KCl, 1.5 mM MgCl2, 0.01 % gelatin, 200 µM of each dNTPs, 1 µM each sense and antisense oligonucleotides and 2.5 units of AmpliTaq DNA polymerase. […] Densitometry was used for quantitative analysis of the ethidium bromide stained gels.

M6P/IGF-II receptor = assay: Expression of M6P/IGF-II receptor mRNA in neonatal fibroblasts, semiquantitative RT-PCR; format: cell-based, human
Description: as §4, §1
The procedure used to transcribe the total RNA was described in detail previously (28). Briefly, the reaction was carried out in a total volume of 25 µl containing 1x reverse transcriptase buffer (50 mM Tris-HCl, pH 8.3, 75 mM KCl, 3 mM MgCl2), 10 mM DTT (Dithiothreitol), 2.5 mM each of dNTPs (Deoxynucleotides), 100 µg/ml of acetylated BSA, 4 units of rRNasin (ribonuclease inhibitor), 200 units of SuperScript ™ RNase H^-Reverse Transcriptase, 0.1 µg of oligo (dT)12-18 and 1 µg of total RNA. Incubation was carried out for 1 h at 42 °C and was terminated by the addition of an equal volume of cold water.
A portion of the first strand cDNA reaction was used in PCR, which was carried out in 25 µl containing 16 mM Tris-HCl, pH 8.3, 50 mM KCl, 1.5 mM MgCl2, 0.01 % gelatin, 200 µM of each dNTPs, 1 µM each sense and antisense oligonucleotides and 2.5 units of AmpliTaq DNA polymerase. Amplification was carried out for 35 cycles. Each cycle consisted of denaturation 1 min at 95°C; annealing at 55°C (optimal for the pair of oligonucleotides used) for 2 min; and elongation at 72°C, 3 min. For the final cycle elongation was 7 min. Reaction products were separated by 2% agarose gel electrophoresis and were visualized by ethidium bromide staining. […] Restriction digests were performed in order to confirm PCR product specificity. Densitometry was used for quantitative analysis of the ethidium bromide stained gels.

M6P/IGF-II receptors = assay: Levels of M6P/IGF-II receptors within wounds treated with M6P; format: in vivo; conditions: 3 days post-wounding
TGF-β receptor type I = assay: Expression of TGF-β receptor type I mRNA in neonatal fibroblasts, semiquantitative RT-PCR; format: cell-based, human; conditions: M6P treatment, during the time course (24 and 48 h)
Description: as §4, §1, §2, §3

SMILES: C[C@]12CCC(=O)C=C1CC[C@@H]1[C@@H]2[C@@H](O)C[C@@]2(C)[C@H]1CC[C@]2(O)C(=O)CO [Hydrocortisone, hydrocortisone]
- inhibition at 1 µM (TGF-β1 activation; Mus musculus, read-out: Inhibition of TGF-β1, % Control (STD)): 64%
- TGase II mRNA level, % of control at 1 µM (TGase II): 37.5%

SMILES: Cl.Cl.NCCCCN [Putrescine, putrescine-dihydrochloride]
- Inhibition of TGF-β1 Activation, % control (STD) (TGF-β1 activation; 50 µM): 33.4 (28.8) %
- Inhibition of TGF-β1 Activation, % control (STD) (TGF-β1 activation; 100 µM): 80.6 (15.5) %
- inhibition at 50 µM (TGF-β1 activation; Mus musculus, 50 µM): 33.4%
- inhibition at 100 µM (TGF-β1 activation; Mus musculus, 100 µM): 80.6 ± 15.5%

SMILES: CN(C)c1cccc2c(S(=O)(=O)NCCCCCN)cccc12 [DCA, monodansylcadaverine]
- Inhibition of TGF-β1 Activation, % control (STD) (TGF-β1 activation; 100 µM, listed as Damylcadaverine): 18.3 (1.6) %
- Total TGF-β1 (STD) (TGF-β1 activation; LPS+CM with serum, 100 µM): 2302 (219.3) pg/ml
- inhibition at 100 µM (TGF-β1 activation; Mus musculus, 100 µM): 18.3%
- levels of mRNA for TGF-β1 (TGF-β1 [1]): remained the same

SMILES: O=P(O)(O)O[C@H]1O[C@H](CO)[C@@H](O)[C@H](O)[C@@H]1O [M1P, alpha-D(+) mannose 1-phosphate]
- TGF-β1 mRNA levels (TGF-β1 [2]; 100 and 200 µM, 24 and 48 h): no effects
- inhibition at 100 µM (TGF-β1 activation; Mus musculus): 85.9%
- M6P/IGF-II receptor mRNA levels (M6P/IGF-II receptor; 100 and 200 µM, 24 and 48 h): no effects

SMILES: O=P(O)(O)OC[C@H]1OC(O)[C@@H](O)[C@@H](O)[C@@H]1O (stereo partly drawn) [M6P, D-mannose 6-phosphate]
- TGF-β1 48 h (TGF-β1 [2]; M6P 100 µM, 48h): 57.5 (15.9)
- Inhibition of TGF-β1 Activation, % control (STD) (TGF-β1 activation; 50 µM): 69.6 (1.7) %
- Inhibition of TGF-β1 Activation, % control (STD) (TGF-β1 activation; 100 µM): 32.9 (11.5) %
- Total TGF-β1 (STD) (TGF-β1 activation; LPS + CM serum-free, 100 µM): 1649.8 (71.7) pg/ml
- Total TGF-β1 (STD) (TGF-β1 activation; LPS+CM with serum, 100 µM): 2472.6 (374.5) pg/ml
- inhibition at 50 µM (TGF-β1 activation; Mus musculus, 50 µM): 69.6%
- inhibition at 100 µM (TGF-β1 activation; Mus musculus, 100 µM): 32.9%
- levels of the M6P/IGF-II receptors within the wounds (M6P/IGF-II receptors): downregulated
- M6P/IGF II Receptor 24h (M6P/IGF-II receptor; M6P 1 µM): 98.4 (20.6)
- M6P/IGF II Receptor 48h (M6P/IGF-II receptor; M6P 1 µM): 112.8 (21.4)
- M6P/IGF II Receptor 24h (M6P/IGF-II receptor; M6P 10 µM): 86.1 (3.2)
- M6P/IGF II Receptor 48h (M6P/IGF-II receptor; M6P 10 µM): 108 (7.1)
- M6P/IGF II Receptor 24h (M6P/IGF-II receptor; M6P 50 µM): 74 (36.6)
- M6P/IGF II Receptor 48h (M6P/IGF-II receptor; M6P 50 µM): 59.3 (1.4)
- M6P/IGF II Receptor 24h (M6P/IGF-II receptor; M6P 100 µM): 85.4 (25)
- M6P/IGF II Receptor 48h (M6P/IGF-II receptor; M6P 100 µM): 42.2 (3.2)
- M6P/IGF II Receptor 24h (M6P/IGF-II receptor; M6P 200 µM): 57.5 (5.2)
- M6P/IGF II Receptor 48h (M6P/IGF-II receptor; M6P 200 µM): 39.6 (1.3)
- levels of mRNA for TGF-β1 (TGF-β1 [1]): remained the same
- level of TGF-β receptor type I mRNA (TGF-β receptor type I): unchanged

— EP0956036B1, “ANTI-FIBROTIC AGENT ASSAY” (ETHICON, INC., priority 1996, dated 1998)
